The values that follow come from publication PMC7915026, “Sulfaguanidine Hybrid with Some New Pyridine-2-One Derivatives: Design, Synthesis, and Antimicrobial Activity against Multidrug-Resistant Bacteria as Dual DNA Gyrase and DHFR Inhibitors” (Antibiotics, 2021).

Holding throughout (type): cell-based
Assay [1] deals with S. aureus ATCC 43300. Briefly: Inhibition zone against multidrug-resistant bacteria. Conditions: MDRB S. aureus ATCC 43300. In a few lines:
(§1)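 Values are inhibition zone diameters in millimetres. These were measured after applying the derivatives to agar plates by diffusion, and norfloxacin served as the reference drug.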

The test system of assay [2] is P. aeruginosa ATCC BAA-2111. The assay is described as above. Particulars: MDRB P. aeruginosa ATCC BAA-2111. In a few lines:
as §1

For assay [3], the system named is E. coli ATCC 25922. Briefly: MIC and MBC determination. Conditions: E. coli.

In brackets after ≈: the same amount, converted by molar mass. Like-named read-outs stand apart in the source and are kept apart here.

Consider `COc1ccc(/C=C(\C#N)C(=O)Nc2ccc(S(=O)(=O)NC(=N)N)cc2)cc1O` [Compound 2d, N-(4-(N-Carbamimidoylsulfamoyl)phenyl)-2-cyano-3-(3-hydroxy-4-methoxyphenyl) acryl-amide], for which the “Mean Diameter of Inhibition Zone” value in assay [1] is 27 ± 0.3 mm; in assay [2], 26 ± 0.41 mm. Moreover, the MBC in assay [3] was found to be 4.66 ± 0.21 µM (≈ 1.94 µg/mL); in assay [3] (Escherichia coli, ATCC25922, read-out: MBC), 4.66 µM (≈ 1.94 µg/mL). Besides, the MIC was 2.33 ± 0.32 µM (≈ 0.968 µg/mL) in assay [3] and 2.33 µM (≈ 0.968 µg/mL) in assay [3] (Escherichia coli, ATCC25922, read-out: MIC).

As usually defined, the MBC is the smallest concentration meeting the test's criterion for killing. Usually MIC stands for the lowest concentration that inhibits growth of the organism.
